Laboratory results from patent US8299302B2 (priority 2007, dated 2012).
Read-outs that look alike come from different tables or passages of the source.

Tests used:
Botrytis cinerea = experiment: Botrytis test (bean) / protective; format: in vivo; conditions: 48 h, read-out: efficacy
Description: (§1) To produce a suitable preparation of active compound, 1 part by weight of active compound is mixed with the stated amounts of solvent and emulsifier, and the concentrate is diluted with water to the desired concentration.
To test for protective activity, young plants are sprayed with the active compound preparation at the stated application rate. After the spray coating has dried on, 2 small pieces of agar overgrown with Botrytis cinerea are placed on each leaf. The inoculated plants are then placed in a darkened chamber at about 20° C. and 100% relative atmospheric humidity.
Two days after the inoculation the size of the infected spots on the leaves is evaluated. 0% means an efficacy which corresponds to that of the control, whereas an efficacy of 100% means that no infection is observed.

Sphaerotheca fuliginea = experiment: Sphaerotheca test (cucumber) / protective; format: in vivo; conditions: Podosphaera fuliginea, 168 h, read-out: efficacy
Description: as §1
(§2) To test for protective activity, young plants are sprayed with the active compound preparation at the stated application rate. After the spray coating has dried, the plants are inoculated with an aqueous spore suspension of Sphaerotheca fuliginea. The plants are then placed in a greenhouse at about 23° C. and a relative atmospheric humidity of about 70%.
Evaluation is carried out 7 days after the inoculation. 0% means an efficacy which corresponds to that of the control, whereas an efficacy of 100% means that no infection is observed.

Uromyces appendiculatus = experiment: Uromyces test (bean) / protective; format: in vivo; conditions: 240 h, read-out: efficacy
Description: as §1
To test for protective activity, young plants are sprayed with the active compound preparation at the stated application rate. After the spray coating has dried on, the plants are inoculated with an aqueous spore suspension of the bean rust pathogen Uromyces appendiculatus and then remain in an incubation cabin at about 20° C. and 100% relative atmospheric humidity for 1 day.
The plants are then placed in a greenhouse at about 21° C. and a relative atmospheric humidity of about 90%.
(§3) Evaluation is carried out 10 days after the inoculation. 0% means an efficacy which corresponds to that of the control, whereas an efficacy of 100% means that no infection is observed.

Podosphaera leucotricha = experiment: Podosphaera test (apple) / protective; format: in vivo; conditions: 240 h, read-out: efficacy
Description: as §1
as §2, with “dried on,” for “dried,”, “the apple mildew pathogen Podosphaera leucotricha.” for “Sphaerotheca fuliginea.”
as §3

Puccinia recondita = experiment: Puccinia test (wheat) / protective; format: in vivo; conditions: 240 h, read-out: efficacy
Description: as §1
To test for protective activity, young plants are sprayed with the active compound preparation at the stated application rate. After the spray coating has dried on, the plants are sprayed with a conidia suspension of Puccinia recondita. The plants remain in an incubation cabin at 20° C. and 100% relative atmospheric humidity for 48 hours.
The plants are then placed in a greenhouse at a temperature of about 20° C. and a relative atmospheric humidity of 80% to promote the development of rust pustules.
as §3

[1] = bean plants, protective spray, active compound concentration 250 ppm, evaluation two days after inoculation
[2] = cucumber plants, protective spray, active compound concentration 100 ppm, evaluation 7 days after inoculation
[3] = bean plants, protective spray, active compound concentration 10 ppm, evaluation 10 days after inoculation
[4] = apple plants, protective spray, active compound concentration 100 ppm, evaluation 10 days after inoculation
[5] = wheat plants, protective spray, active compound concentration 1000 ppm, evaluation 10 days after inoculation

Row | Compound | log P (pH 2.3) | pest or weed control at 250 ppm (Botrytis cinerea; [1]) | pest or weed control at 100 ppm (Sphaerotheca fuliginea; [2]) | logP (logP (acidic, pH 2.3); pH 2.3, logP acidic, acidic) | pest or weed control at 10 ppm (Uromyces appendiculatus; [3]) | pest or weed control at 100 ppm (Podosphaera leucotricha; [4]) | pest or weed control at 1000 ppm (Puccinia recondita; [5]) | pest or weed control at 250 ppm (Botrytis cinerea) | pest or weed control at 100 ppm (Sphaerotheca fuliginea) | logP (logP (acidic, pH 2.3); pH 2.3) | pest or weed control at 10 ppm (Uromyces appendiculatus) | pest or weed control at 100 ppm (Podosphaera leucotricha) | pest or weed control at 1000 ppm (Puccinia recondita) | logP (logP (acidic, pH 2.3); pH 2.3, log P (pH 2.3), pH 2.3)
1 | 4-(4-Bromophenoxy)-2,5-dimethylnitrobenzene | 4.86 | – | – | – | – | – | – | – | – | – | – | – | – | –
2 | 4-(4-Cyclohexylphenoxy)-2,5-dimethylnitrobenzene | 6.69 | – | – | – | – | – | – | – | – | – | – | – | – | –
3 | CCN(C)C=Nc1cc(C)c(Oc2ccc(-c3ccc(SC)cc3)cc2)cc1C [Compound 6, N′-(2,5-dimethyl-4-{[4′-(methylthio)biphenyl-4-yl]oxy}phenyl)-N-ethyl-N-methylimidoformamide] | – | ≥ 70% | ≥ 70% | 2.67 | ≥ 70% | ≥ 70% | ≥ 70% | – | – | – | – | – | – | –
4 | CCN(C)C=Nc1cc(C)c(Oc2ccc(-c3ccc(F)cc3)cc2)cc1C [Compound 11] | – | – | – | – | – | – | – | ≥ 70% | ≥ 70% | 2.69 | ≥ 70% | ≥ 70% | ≥ 70% | –
5 | CCc1ccccc1-c1ccc(Oc2cc(C)c(N=CN(C)CC)cc2C)cc1 [Compound 13] | – | – | – | – | – | – | – | ≥ 70% | ≥ 70% | 2.89 | ≥ 70% | ≥ 70% | ≥ 70% | –
6 | CCN(C)C=Nc1cc(C)c(Oc2ccc(-c3ccccc3C)cc2)cc1C [Compound 16] | – | – | – | – | – | – | – | ≥ 70% | ≥ 70% | 2.75 | ≥ 70% | ≥ 70% | ≥ 70% | –
7 | CCN(C)C=Nc1cc(C)c(Oc2ccc(-c3ccccc3F)cc2)cc1C [Compound 17] | – | – | – | – | – | – | – | ≥ 70% | ≥ 70% | 2.56 | ≥ 70% | ≥ 70% | ≥ 70% | –
8 | CCN(C)C=Nc1cc(C)c(Oc2ccc(-c3ccccc3C(C)=O)cc2)cc1C [Compound 18] | – | – | – | – | – | – | – | ≥ 70% | ≥ 70% | 2.29 | ≥ 70% | ≥ 70% | ≥ 70% | –
9 | CCN(C)C=Nc1cc(C)c(Oc2ccc(-c3ccccc3Cl)cc2)cc1C [Compound 27, N′-{4-[(2′-chlorobiphenyl-4-yl)oxy]-2,5-dimethylphenyl}-N-ethyl-N-methylimidoformamide] | – | ≥ 70% | ≥ 70% | 2.67 | ≥ 70% | ≥ 70% | ≥ 70% | – | – | – | – | – | – | –
10 | CCN(C)C=Nc1cc(C)c(Oc2ccc(C3CCCC3)cc2)cc1C [Compound 32, N′-[4-(4-cyclopentylphenoxy)-2,5-dimethylphenyl]-N-ethyl-N-methylimidoformamide] | – | ≥ 70% | ≥ 70% | 2.87 | ≥ 70% | ≥ 70% | ≥ 70% | – | – | – | – | – | – | –
11 | Cc1cc(Oc2ccc(C3CCCC3)cc2)c(C)cc1N=CN(C)C(C)C [Compound 33, N′-[4-(4-cyclopentylphenoxy)-2,5-dimethylphenyl]-N-isopropyl-N-methylimidoformamide] | – | ≥ 70% | ≥ 70% | 3 | ≥ 70% | ≥ 70% | ≥ 70% | – | – | – | – | – | – | –
12 | CCN(C)C=Nc1cc(C)c(Oc2ccc(C3CCCCC3)cc2)cc1C [Compound 38, N′-{4-[4-cyclohexylphenoxy]-2,5-dimethylphenyl}-N-ethyl-N-methylimidoformamide] | – | ≥ 70% | ≥ 70% | 2.99 | ≥ 70% | ≥ 70% | ≥ 70% | – | – | – | – | – | – | 2.99
13 | Cc1cc(Oc2ccc(C3CCCCC3)cc2)c(C)cc1/N=C/N1CCCCC1 [Compound 41, 4-(4-cyclohexylphenoxy)-2,5-dimethyl-N-[(1E)-piperidin-1-ylmethylene]aniline] | – | ≥ 70% | ≥ 70% | 3.46 | ≥ 70% | ≥ 70% | ≥ 70% | – | – | – | – | – | – | –
